Structure (SMILES)	logP
O=C(NC1(C(F)F)CCC1)c1ccccc1	2.48
CC12CCCC(CN1C(=O)c1ccccc1)C2 (stereo unspecified)	2.41
O=C(N[C@H]1C[C@H](C(F)F)C1)c1ccccc1	1.97
O=C(NC1CCCCC(F)(F)C1)c1ccccc1 (stereo unspecified)	2.57
O=C(c1ccccc1)N1CCC(C(F)F)CC1	1.67
O=C(NC1CC(F)(F)C1)c1ccccc1	1.94
O=C(c1ccccc1)N1CC2CCC(C2)C1	2.31
O=C(N[C@@H]1CC[C@H]1F)c1ccccc1	1.64
O=C(c1ccccc1)N1CC2CCC1C2 (stereo unspecified)	1.65
O=C(c1ccccc1)N1CCCC(F)(F)C1	1.65
O=C(c1ccccc1)N1CC2CCCC1C2 (stereo unspecified)	1.88
O=C(c1ccccc1)N1CC2CCC1CC2	2.01
O=C(NC1CCCC1)c1ccccc1	2.23
O=C(c1ccccc1)N1CCCC(F)C1 (stereo unspecified)	1.26
O=C(c1ccccc1)N1CC(C(F)F)C1	1.4
O=C(N[C@@H]1C[C@@H]1CF)c1ccccc1	1.12
O=C(c1ccccc1)N1CC2CCC1(C(F)(F)F)C2 (stereo unspecified)	2.2
O=C(N[C@H]1C[C@H](C(F)(F)F)C1)c1ccccc1	2.82
O=C(NC1CCCCC1)c1ccccc1	2.72
O=C(c1ccccc1)N1CC2CCCC(C1)C2(F)F	2.18
O=C(c1ccccc1)N1CC2CC(F)(F)CC(C1)C2(F)F	1.84
O=C(c1ccccc1)N1CCCCC1C(F)F (stereo unspecified)	2.04
O=C(c1ccccc1)N1CCC(F)C1 (stereo unspecified)	0.91
O=C(c1ccccc1)N1CC2CCC1(C(F)(F)F)CC2	2.51

Structure (SMILES)	logP
O=C(c1ccccc1)N1CC2COCC(C2)C1	0.84
O=C(N[C@H]1C[C@@H]2[C@H](C1)C2(F)F)c1ccccc1	2.47
O=C(NC1CC12CC2)c1ccccc1 (stereo unspecified)	2.08
O=C(c1ccccc1)N1CC[C@@H](F)[C@H](F)C1	1.26
O=C(Nc1ccccc1)[C@@H]1C[C@@H]1CF	1.88
O=C(c1ccccc1)N1CCCC1C(F)(F)F (stereo unspecified)	2.12
O=C(NC1CC12CC2(F)F)c1ccccc1 (stereo unspecified)	2.04
O=C(c1ccccc1)N1CCC(C(F)(F)F)CC1	2.2
O=C(NC1CCCC(F)(F)CC1)c1ccccc1 (stereo unspecified)	2.5
O=C(c1ccccc1)N1CC(C(F)(F)F)C1	1.66
O=C(c1ccccc1)N1CCCCC1	1.39
O=C(c1ccccc1)N1CC2CC1C2	1.47
O=C(N[C@@H]1C[C@@H]2C[C@@H]2C1)c1ccccc1	2.3
O=C(NC1CCC(F)(F)C1)c1ccccc1 (stereo unspecified)	2.02
O=C(N[C@H]1C[C@@H](C(F)F)C1)c1ccccc1	1.98
O=C(NC1(C(F)(F)F)CCC1)c1ccccc1	2.51
O=C(N[C@@H]1C[C@H]1C(F)F)c1ccccc1	1.64
O=C(c1ccccc1)N1C[C@@H](F)[C@@H](F)C1	1.01
O=C(c1ccccc1)N1C[C@H](F)C[C@H](F)C1	0.58
O=C(c1ccccc1)N1CC2CC1(C(F)(F)F)C2	1.93
O=C(c1ccccc1)N1CCCC1CF (stereo unspecified)	1.75
O=C(c1ccccc1)N1CC(F)C1	0.94
O=C(NC1CCCC1(F)F)c1ccccc1 (stereo unspecified)	1.87
O=C(NC1CCCCCC1)c1ccccc1	3.03

The next lines start with the values.

logP	Structure (SMILES)
1.83	C[C@@H]1C[C@H]1NC(=O)c1ccccc1
1.67	O=C(N[C@H]1C[C@@H](F)C1)c1ccccc1
2.37	O=C(Nc1ccccc1)[C@H]1C[C@@H]2[C@H](C1)C2(F)F
2.31	C[C@@H]1C[C@@H]1C(=O)Nc1ccccc1
2.39	O=C(Nc1ccccc1)[C@H]1C[C@H](C(F)F)C1
1.49	O=C(NCCC(F)F)c1ccccc1
2.35	O=C(Nc1ccccc1)[C@H]1C[C@H]1C(F)F
2.07	O=C(Nc1ccccc1)C1CC1(F)F (stereo unspecified)
1.74	O=C(Nc1ccccc1)[C@@H]1CC[C@@H]1F
2.19	O=C(Nc1ccccc1)C1(C(F)F)CCC1
2.26	O=C(Nc1ccccc1)C1CC(F)(F)C1
2.42	C[C@@H]1C[C@H]1C(=O)Nc1ccccc1
1.93	O=C(NCCC(F)(F)F)c1ccccc1
2.14	O=C(Nc1ccccc1)[C@H]1C[C@H](CF)C1
1.37	O=C(NCC(F)F)c1ccccc1
2.5	O=C(Nc1ccccc1)C1CCCCC1(F)F (stereo unspecified)
2.42	O=C(Nc1ccccc1)C1C(F)(F)C12CC2 (stereo unspecified)
3.03	O=C(Nc1ccccc1)C1CCCCC(F)(F)C1 (stereo unspecified)
1.85	O=C(N[C@@H]1CC[C@H]1CF)c1ccccc1
2.28	O=C(Nc1ccccc1)[C@@H]1C[C@H]1C(F)F
2.95	O=C(Nc1ccccc1)C1CCCC(F)(F)CC1 (stereo unspecified)
2.12	CC(F)(F)CCC(=O)Nc1ccccc1
2.23	O=C(Nc1ccccc1)[C@H]1C[C@@H](C(F)F)C1
2.29	CCCCC(=O)Nc1ccccc1
1.77	O=C(N[C@H]1C[C@@H](CF)C1)c1ccccc1
1.54	O=C(Nc1ccccc1)C12CC(CO1)C2
2.87	O=C(Nc1ccccc1)[C@H]1C[C@@H]2C[C@@H]2C1
2.72	O=C(Nc1ccccc1)C1CCCC(F)(F)C1 (stereo unspecified)

Reference: the SangsterLogP compilation
